# Measurements from US9428519B2, “Acylated derivative of homoharringtonine, preparation method therefor, and application thereof” (HANGZHOU BENSHENG PHARMACEUTICAL CO., LTD., priority 2011, dated 2016).
# Key:
# [1] = tested on: H9 (acute lymphoblastic leukemia, ALL); test: MTT growth inhibition of leukemia cells, 72 h; format: cell-based, human; details: MTT
# Procedure, shortened: (§1)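 Readout: MTT viability after 72 h, untreated wells = 100%, IC50 derived from viability across concentrations. Cells seeded at 6000/well in 1640 medium + 10% FBS, dosed with a concentration series, held at 37 °C under 5% CO2.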
# [2] = tested on: Jurkat (acute lymphoblastic leukemia, ALL); test: MTT growth inhibition of leukemia cells, 72 h; format: cell-based, human
# Procedure, shortened: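 Growth inhibition of the Jurkat ALL line was measured by MTT after 72 hours of compound exposure at 37° C. under 5% CO2. Wells of a 96-well plate held 6000 cells in 1640 medium plus 10% fetal bovine serum; untreated controls defined 100% viability, and inhibitory concentrations were derived from percent viability.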
# [3] = tested on: K562/adr (drug-resistant, chronic myeloid leukemia, CML); test: MTT growth inhibition of leukemia cells, 72 h; format: cell-based, human; details: MTT
# Procedure, shortened: as §1
# [4] = tested on: Kasumi-1 (acute myeloid leukemia M2 type, AML-M2); test: MTT growth inhibition of leukemia cells, 72 h; format: cell-based, human
# Procedure, shortened: as §1
# [5] = tested on: NB4 (acute promyelocytic leukemia, AML); test: MTT growth inhibition of leukemia cells, 72 h; format: cell-based, human; details: MTT
# Procedure, shortened: as §1
# [6] = tested on: RPMI8226 (multiple myeloma); test: MTT growth inhibition of multiple myeloma cells, 72 h; format: cell-based, human
# Procedure, shortened: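 Growth inhibition read by MTT after 72 h compound exposure (37 °C, 5% CO2) of 6000 RPMI8226 cells per well in 1640 medium plus 10% fetal bovine serum. Viability expressed against untreated cells (100%), from which the 72 h IC50 was derived.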
# A549 (human lung cancer) = test: MTT growth inhibition of human solid tumor cells, 72 h; format: cell-based
# Procedure, shortened: (§2)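 4000 cells/well, DMEM high glucose + 10% FBS, 37° C, 5% CO2; 24 h attachment. Add compound, various concentrations, 72 h. MTT readout; % viability vs untreated control (100%).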
# [7] = tested on: Becap37 (human breast cancer cell); test: as above; format: cell-based
# Procedure, shortened: as §2
# [8] = tested on: CNE (nasopharyngeal carcinoma cell); test: as above; format: cell-based; details: MTT
# Procedure, shortened: as §2
# [9] = tested on: CaES-17 (esophageal cancer cell); test: as above; format: cell-based
# Procedure, shortened: as §2
# [10] = tested on: Hela (human cervical cancer cell); test: as above; format: cell-based; details: MTT
# Procedure, shortened: as §2
# [11] = tested on: Hep-2 (laryngeal carcinoma); test: as above; format: cell-based
# Procedure, shortened: as §2
# [12] = tested on: Huh7 (human liver cancer cell); test: as above; format: cell-based
# Procedure, shortened: as §2
# MG63 (osteosarcoma) = test: as above; format: cell-based
# Procedure, shortened: as §2
# [13] = tested on: MGC 803 (human gastric cancer cell); test: as above; format: cell-based
# Procedure, shortened: as §2
# [14] = tested on: PANC-1 (pancreatic cancer); test: as above; format: cell-based
# Procedure, shortened: as §2
# PC-3 (prostate cancer) = test: as above; format: cell-based; details: MTT
# Procedure, shortened: as §2
# [15] = tested on: RKO (human colon adenocarcinoma cell); test: as above; format: cell-based; details: MTT
# Procedure, shortened: as §2
# [16] = tested on: SK-OV-3 (ovarian cancer cell); test: as above; format: cell-based
# Procedure, shortened: as §2
# [17] = tested on: U87 MG (malignant glioma cell); test: as above; format: cell-based
# Procedure, shortened: as §2
smiles,measurement,setting,value
COC(=O)C[C@@](CCCC(C)(C)OC(=O)c1ccccc1)(OC(=O)c1ccccc1)C(=O)O[C@@H]1C(OC)=C[C@]23CCCN2CCc2cc4c(cc2[C@H]13)OCO4 [BS-HH-0732],IC50 H9,[1],1.3 µg/mL
same,IC90 H9,[1],3.9 µg/mL
same,IC50 Jurkat,[2],1.4 µg/mL
same,IC90 Jurkat,[2],6.4 µg/mL
same,IC50 K562/adr,[3],2.5 µg/mL
same,IC90 K562/adr,[3],6.5 µg/mL
same,IC50 Kasumi-1,[4]; MTT,1.35 µg/mL
same,IC90 Kasumi-1,[4]; MTT,3.56 µg/mL
same,IC50 NB4,[5],1.19 µg/mL
same,IC90 NB4,[5],2.47 µg/mL
same,IC50 RPMI8226,[6]; MTT,1.15 µg/mL
same,IC90 RPMI8226,[6]; MTT,3.84 µg/mL
same,IC50 A549,A549 (human lung cancer),5.4 µg/mL
same,IC90 A549,A549 (human lung cancer),>16 µg/mL
same,IC50 Becap37,[7],2.9 µg/mL
same,IC90 Becap37,[7],12.7 µg/mL
same,IC50 CNE,[8],3.91 µg/mL
same,IC90 CNE,[8],>16 µg/mL
same,IC50 CaES-17,[9],3.93 µg/mL
same,IC90 CaES-17,[9],16 µg/mL
same,IC50 Hela,[10],2.61 µg/mL
same,IC90 Hela,[10],8.37 µg/mL
same,IC50 Hep-2,[11],3.46 µg/mL
same,IC90 Hep-2,[11],>16 µg/mL
same,IC50 Huh7,[12],4.8 µg/mL
same,IC90 Huh7,[12],14.5 µg/mL
same,IC50 MG 63,MG63 (osteosarcoma); MTT,1.34 µg/mL
same,IC90 MG 63,MG63 (osteosarcoma); MTT,9.88 µg/mL
same,IC50 MGC 803,[13],2.7 µg/mL
same,IC90 MGC 803,[13],9.92 µg/mL
same,IC50 PANC-1,[14]; MTT,5.8 µg/mL
same,IC90 PANC-1,[14]; MTT,16 µg/mL
same,IC50 PC-3,PC-3 (prostate cancer),3.97 µg/mL
same,IC90 PC-3,PC-3 (prostate cancer),16 µg/mL
same,IC50 RKO,[15],1.4 µg/mL
same,IC90 RKO,[15],5.24 µg/mL
same,IC50 SK-OV-3,[16]; MTT,6.71 µg/mL
same,IC90 SK-OV-3,[16]; MTT,>16 µg/mL
same,IC50 U87 MG,[17],2 µg/mL
same,IC90 U87 MG,[17],8.54 µg/mL
"COC(=O)C[C@](O)(CCCC(C)(C)O)C(=O)O[C@@H]1C(OC)=C[C@]23CCCN2CCc2cc4c(cc2[C@H]13)OCO4 [HHT, O-3-[(2R)-2,6-dihydroxy-2-(2′-methoxy-2′-oxoethyl)-6-methylheptanoyl]cephalotaxine, reference compound]",IC50,[1]; Homo sapiens,0.02 µg/mL
same,IC90,[1]; Homo sapiens,0.046 µg/mL
same,IC50,"[2]; Homo sapiens, Jurkat",0.007 µg/mL
same,IC90,"[2]; Homo sapiens, Jurkat",≥ 16 µg/mL
same,IC50,"[3]; Homo sapiens, K562/Adr",0.035 µg/mL
same,IC90,"[3]; Homo sapiens, K562/Adr",0.98 µg/mL
same,IC50,"[4]; Homo sapiens, Kasumi 1, MTT",0.005 µg/mL
same,IC90,"[4]; Homo sapiens, Kasumi 1, MTT",0.024 µg/mL
same,IC50,[5]; Homo sapiens,0.006 µg/mL
same,IC90,[5]; Homo sapiens,0.012 µg/mL
same,IC50,"[6]; Homo sapiens, RPMI-8226, MTT",0.006 µg/mL
same,IC90,"[6]; Homo sapiens, RPMI-8226, MTT",0.027 µg/mL
same,IC50,"A549 (human lung cancer); Homo sapiens, A549",0.03 µg/mL
same,IC90,"A549 (human lung cancer); Homo sapiens, A549",> 16 µg/mL
same,IC50,[7]; Homo sapiens,0.01 µg/mL
same,IC90,[7]; Homo sapiens,11.6 µg/mL
same,IC50,[8]; Homo sapiens,0.038 µg/mL
same,IC90,[8]; Homo sapiens,> 16 µg/mL
same,IC50,"[9]; Homo sapiens, CaEs17",0.037 µg/mL
same,IC90,"[9]; Homo sapiens, CaEs17",> 16 µg/mL
same,IC50,"[10]; Homo sapiens, HeLa",0.019 µg/mL
same,IC90,"[10]; Homo sapiens, HeLa",16 µg/mL
same,IC50,"[11]; Homo sapiens, HEp-2",0.014 µg/mL
same,IC90,"[11]; Homo sapiens, HEp-2",> 16 µg/mL
same,IC50,"[12]; Homo sapiens, Huh-7",0.004 µg/mL
same,IC90,"[12]; Homo sapiens, Huh-7",0.049 µg/mL
same,IC50,"MG63 (osteosarcoma); Homo sapiens, MG-63, MTT",0.01 µg/mL
same,IC90,"MG63 (osteosarcoma); Homo sapiens, MG-63, MTT",1.2 µg/mL
same,IC50,"[13]; Homo sapiens, MGC-803",0.016 µg/mL
same,IC90,"[13]; Homo sapiens, MGC-803",0.2 µg/mL
same,IC50,"[14]; Homo sapiens, PANC-1, MTT",0.035 µg/mL
same,IC90,"[14]; Homo sapiens, PANC-1, MTT",> 16 µg/mL
same,IC50,PC-3 (prostate cancer); Homo sapiens,0.08 µg/mL
same,IC90,PC-3 (prostate cancer); Homo sapiens,> 16 µg/mL
same,IC50,[15]; Homo sapiens,0.003 µg/mL
same,IC90,[15]; Homo sapiens,0.009 µg/mL
same,IC50,"[16]; Homo sapiens, SK-OV-3, MTT",0.09 µg/mL
same,IC90,"[16]; Homo sapiens, SK-OV-3, MTT",> 16 µg/mL
same,IC50,"[17]; Homo sapiens, U-87 MG",0.004 µg/mL
same,IC90,"[17]; Homo sapiens, U-87 MG",0.018 µg/mL
